Experimental data from publication PMC12036557, “Functional Imaging of CYP3A4 at Multiple Dimensions Using an AI‐Driven High Performance Fluorogenic Substrate” (Small (Weinheim an Der Bergstrasse, Germany), 2025).
Like-named read-outs stand apart in the source and are kept apart here. Values belong to the compound of their own block, whether it stands above or below them.

Experiments:
CYP3A4 [1] = target: T1, CYP3A4 (Homo sapiens, UniProt P08684); test: Fluorescence response of NFa toward hCYP3A4; assay type: biochemical; set-up: purchased Cypex
T1 sequence (P08684 whole entry): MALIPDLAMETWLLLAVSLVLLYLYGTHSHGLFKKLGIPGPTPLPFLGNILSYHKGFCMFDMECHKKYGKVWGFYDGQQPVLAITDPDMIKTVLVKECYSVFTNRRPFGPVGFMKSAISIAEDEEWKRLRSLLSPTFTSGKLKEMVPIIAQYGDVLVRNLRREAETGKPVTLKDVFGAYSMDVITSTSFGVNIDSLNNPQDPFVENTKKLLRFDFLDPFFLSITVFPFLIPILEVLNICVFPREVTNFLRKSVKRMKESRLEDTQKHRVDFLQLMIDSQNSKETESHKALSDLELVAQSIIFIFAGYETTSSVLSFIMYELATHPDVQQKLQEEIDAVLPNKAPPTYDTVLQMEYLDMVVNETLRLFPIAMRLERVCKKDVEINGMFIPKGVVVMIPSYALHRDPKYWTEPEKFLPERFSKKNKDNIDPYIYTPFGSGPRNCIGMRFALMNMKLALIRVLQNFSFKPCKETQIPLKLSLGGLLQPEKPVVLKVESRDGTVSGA

[2] = Safety test of NFa in healthy mice; assay type: in vivo, C57BL/6J mice; conditions: oral 100 mg kg^−1 per day, 14 consecutive days
CYP3A4 [3] = target: T1, CYP3A4; test: Enzyme kinetic analyses of NFs 4-hydroxylation by hCYP3A4; assay type: biochemical; set-up: purchased Cypex
[4] = Optical properties, photostability and pH stability of NFa and 4-HNFa; assay type: physicochemical; set-up: maximum UV absorption: unit not given here
P-gp = target: T2, P-gp (Homo sapiens, UniProt P08183); test: Identification of the P-gp substrates in living cells (MDR1-MDCK); assay type: cell-based; conditions: with/without verapamil
T2 construct: expressed in transfected cells; host or cells: MDR1-MDCK
T2 sequence (P08183 whole entry): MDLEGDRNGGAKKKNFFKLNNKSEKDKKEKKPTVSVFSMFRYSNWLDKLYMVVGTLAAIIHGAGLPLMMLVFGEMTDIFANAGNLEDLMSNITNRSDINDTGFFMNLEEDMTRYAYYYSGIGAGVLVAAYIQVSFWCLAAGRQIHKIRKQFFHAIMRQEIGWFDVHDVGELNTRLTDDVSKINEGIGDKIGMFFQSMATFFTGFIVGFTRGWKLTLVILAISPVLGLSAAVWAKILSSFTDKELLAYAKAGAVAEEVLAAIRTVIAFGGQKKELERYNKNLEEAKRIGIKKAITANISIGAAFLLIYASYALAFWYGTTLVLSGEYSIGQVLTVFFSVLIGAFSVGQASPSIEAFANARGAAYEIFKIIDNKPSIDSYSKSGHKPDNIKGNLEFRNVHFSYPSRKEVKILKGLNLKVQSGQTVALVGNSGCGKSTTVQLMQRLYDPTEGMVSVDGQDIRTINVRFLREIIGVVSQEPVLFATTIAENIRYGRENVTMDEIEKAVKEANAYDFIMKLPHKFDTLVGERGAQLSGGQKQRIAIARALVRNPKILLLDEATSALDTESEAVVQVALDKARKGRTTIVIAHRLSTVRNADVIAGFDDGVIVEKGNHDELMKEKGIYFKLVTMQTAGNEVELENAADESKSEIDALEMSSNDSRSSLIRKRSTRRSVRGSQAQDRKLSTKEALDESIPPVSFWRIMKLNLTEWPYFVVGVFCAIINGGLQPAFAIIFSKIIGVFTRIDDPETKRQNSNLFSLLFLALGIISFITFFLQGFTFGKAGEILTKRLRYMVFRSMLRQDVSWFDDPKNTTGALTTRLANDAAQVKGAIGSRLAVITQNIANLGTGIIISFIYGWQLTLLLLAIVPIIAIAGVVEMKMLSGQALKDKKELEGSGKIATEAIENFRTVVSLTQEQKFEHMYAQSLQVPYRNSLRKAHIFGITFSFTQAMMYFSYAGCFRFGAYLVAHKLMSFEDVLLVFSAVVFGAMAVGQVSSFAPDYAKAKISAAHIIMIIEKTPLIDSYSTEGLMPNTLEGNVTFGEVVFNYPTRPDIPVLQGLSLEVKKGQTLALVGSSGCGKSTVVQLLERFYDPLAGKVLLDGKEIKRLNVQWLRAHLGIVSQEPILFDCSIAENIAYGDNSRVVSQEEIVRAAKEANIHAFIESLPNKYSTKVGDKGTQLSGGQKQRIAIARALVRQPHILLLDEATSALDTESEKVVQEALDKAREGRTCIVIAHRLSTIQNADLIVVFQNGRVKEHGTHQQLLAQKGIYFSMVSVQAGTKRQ

[5] = Pharmacokinetics and oral bioavailability of NFa; assay type: in vivo; conditions: mice
aldehyde oxidase (AO) = target: T3, aldehyde oxidase (AO) (Homo sapiens, UniProt Q06278); test: Oxidative metabolism of NFa in AO (human liver cytosol); assay type: in vitro ADME; conditions: NFa 20 μM, human liver cytosol without NADPH, 30 min
T3 construct: The oxidative metabolism of NFa in human liver cytosol (HLC) without NADPH; from tissue; host or cells: human liver cytosol
T3 sequence (Q06278 1-1338): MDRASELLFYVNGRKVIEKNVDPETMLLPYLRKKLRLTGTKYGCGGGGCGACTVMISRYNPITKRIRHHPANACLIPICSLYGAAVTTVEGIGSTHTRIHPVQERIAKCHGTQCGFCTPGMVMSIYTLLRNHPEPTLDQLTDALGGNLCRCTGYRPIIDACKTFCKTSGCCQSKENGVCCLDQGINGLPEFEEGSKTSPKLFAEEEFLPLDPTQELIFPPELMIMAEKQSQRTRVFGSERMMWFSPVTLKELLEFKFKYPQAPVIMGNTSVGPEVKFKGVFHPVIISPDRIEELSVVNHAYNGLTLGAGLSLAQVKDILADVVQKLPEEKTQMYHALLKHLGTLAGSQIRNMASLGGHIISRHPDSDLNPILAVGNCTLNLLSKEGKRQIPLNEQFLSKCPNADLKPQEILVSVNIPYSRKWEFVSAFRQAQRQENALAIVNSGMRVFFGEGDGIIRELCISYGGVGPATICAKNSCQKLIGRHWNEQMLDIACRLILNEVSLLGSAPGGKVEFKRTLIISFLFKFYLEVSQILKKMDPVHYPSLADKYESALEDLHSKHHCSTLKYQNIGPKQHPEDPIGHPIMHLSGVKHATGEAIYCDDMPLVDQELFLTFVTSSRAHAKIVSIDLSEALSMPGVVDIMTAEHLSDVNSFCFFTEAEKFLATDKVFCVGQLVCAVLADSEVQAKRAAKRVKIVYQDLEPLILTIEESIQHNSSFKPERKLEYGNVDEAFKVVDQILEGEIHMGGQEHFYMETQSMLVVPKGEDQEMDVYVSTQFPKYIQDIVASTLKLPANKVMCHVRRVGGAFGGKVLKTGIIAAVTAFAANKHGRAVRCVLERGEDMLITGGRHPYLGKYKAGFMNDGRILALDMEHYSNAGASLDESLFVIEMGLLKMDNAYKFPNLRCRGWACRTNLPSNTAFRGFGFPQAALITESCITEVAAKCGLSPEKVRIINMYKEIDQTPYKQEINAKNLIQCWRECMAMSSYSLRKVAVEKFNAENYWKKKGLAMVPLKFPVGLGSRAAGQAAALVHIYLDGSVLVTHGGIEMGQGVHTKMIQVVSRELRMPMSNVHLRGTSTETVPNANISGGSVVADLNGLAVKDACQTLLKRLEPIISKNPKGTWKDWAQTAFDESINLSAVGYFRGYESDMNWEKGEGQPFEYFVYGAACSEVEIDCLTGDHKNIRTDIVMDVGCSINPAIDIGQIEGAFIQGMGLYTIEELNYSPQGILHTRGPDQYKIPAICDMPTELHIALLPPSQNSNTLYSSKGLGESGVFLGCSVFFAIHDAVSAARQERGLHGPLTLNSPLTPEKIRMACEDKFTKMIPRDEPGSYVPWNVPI

[6] = test system: MCF‐7, Hep3B, and U87 cells; test: Cytotoxicity assays; assay type: cell-based
FMO1, FMO3, FMO5 = test: Oxidative metabolism of NFa in FMOs; assay type: in vitro ADME; conditions: NFa 20 μM, NADPH, 30 min
NCM460 cells = test: Cell-membrane permeability in NCM460 cells; assay type: cell-based; conditions: 20 μM, 60 min
[7] = test system: panel of human recombinant cytochrome P450 enzymes; test: P450 reaction phenotyping analysis; assay type: biochemical; conditions: each recombinant CYP 2.5 nM, 37 °C, 30 min
CYP3A4 [8] = target: T1, CYP3A4; test: Functional imaging of hCYP3A4 in living cells; assay type: cell-based; conditions: MCF‐7 and Hep3B cells
Hep3B cells = test: Cell-membrane permeability in Hep3B cells; assay type: cell-based; conditions: 20 μM, 60 min
[9] = In vivo inhibitory effect against CYP3A4 (pharmacokinetics of NFa with inhibitor); set-up: species or system C57 mice; conditions: C57, mouse, plasma, po, 20 mg/kg, mice plasma; for AUC: read-out: AUC(0‐inf)
CYP3A4 [10] = target: T1, CYP3A4; test: in vitro; conditions: pH 7.4
CYP3A = test: Functional imaging of CYP3A4 in mouse liver tissue slices; conditions: pre‐incubated 1 h, inhibitor 20 µM
CYP3A4 [11] = test system: CYP3A4; set-up: method as in PMID 22971642; conditions: RTV 50 mg kg^−1, mice; cited from earlier work
CYP3A4 [12] = target: T1, CYP3A4; test: Inhibitory effect of D13 in CHO-3A4 stably transfected cell line; assay type: cell-based; set-up: expressed in transfected cells; host or cells: CHO-3A4 stably transfected cell line; conditions: CHO-3A4 cells, D13 1 h, NFa 10 μM 30 min; read-out: inhibitory effect (IC50) in living cells
CYP3A4 [13] = target: T1, CYP3A4; test: NFa-based inhibition assay in recombinant hCYP3A4; assay type: biochemical; set-up: purchased Cypex; conditions: read-out: IC50 against CYP3A4‐catalyzed NFa 4‐hydroxylation
CYP3A4 [14] = target: T1, CYP3A4; test: NFa-based screening and characterizing of hCYP3A4 inhibitors in HLMs; conditions: human, human liver microsomes, pH 7.4, probe NFa (4-hydroxylation to 4-HNFa)
hCYP3A4 in HLMs = hCYP3A4 in HLMs (Homo sapiens, UniProt P08684); test: as above
hCYP3A4 in HLMs, sequence (P08684 whole entry): as the sequence (P08684 whole entry) above

CYP3A4 [15] = test: Liver organ imaging in the presence of CYP3A4 inhibitor (ex vivo); conditions: mouse, excised whole liver tissue (ex vivo), probe NFa (50 µM); whole mice liver, inhibitor 1 h, NFa 50 µM 30 min; read-out: IC50 (4‐HNFa levels in liver tissue)
CYP3A4 [16] = test: In vivo inhibitory effect against CYP3A4 (pharmacokinetics of NFa with inhibitor); set-up: species or system C57 mice; conditions: inhibitor 50 mg/kg i.g., NFa 20 mg/kg i.g., mice
[17] = mouse, plasma, po, 20 mg/kg, i.g.
[18] = NFa 20 mg/kg i.g. with D13 50 mg/kg i.g.
[19] = NFa 20 mg/kg i.g. with RTV 50 mg/kg i.g.
[20] = NFa 20 mg/kg i.g., control group CMC‐Na

SMILES: O=C1c2cccc3cccc(c23)C(=O)N1Cc1cscn1 [NFa, N-(4-Thiazolemethanamino)-naphtahlimide]
limit of detection for sensing hCYP3A4 (CYP3A4 [1]): 0.047 nM | interference from endogenous fatty acids, amino acids, and cations on NFa 4‐hydroxylation by hCYP3A4 (CYP3A4 [1]; NFa 10 μM, 37 ℃, 30 min): no interference | enhancement in fluorescence emission ≈555 nM (CYP3A4 [1]; NFa 10 µM, hCYP3A4 10 nM, 37 °C, 30 min, λex 450): 154 fold | biochemical assays and H&E staining findings [2]: no haematotoxicity, organ injuries, or apparent abnormalities | body weight [2]: gradual increase | mortality [2]: no mortality | K m (CYP3A4 [3]): 13.33 ± 1.01 µM | Molar extinction coefficient ε [4]: 44300 M⁻¹ cm⁻¹ | maximum UV absorption [4]: 340 | maximum fluorogenic emission [4]: 390 nm | P‐gp substrate status (P-gp): non‐substrate for P‐gp | Oral bioavailability ([5]; 20 mg/kg i.g. vs 2 mg/kg i.v.): 15.27% | AUC(0-inf) ([5]; mouse, plasma, iv, 2 mg/kg): 439 ± 40.7 ng·h/mL | Cmax ([5]; mouse, plasma, iv, 2 mg/kg): 913 ± 116 ng/mL | Tmax ([5]; mouse, plasma, iv, 2 mg/kg): 0.083 h | half-life ([5]; mouse, plasma, iv, 2 mg/kg): 1.24 ± 0.39 h | bioavailability ([5]; mouse, plasma, oral, 20 mg/kg, 20 mg/kg i.g. vs 2 mg/kg i.v.): 15.3% | AUC(0-inf) [5, 17]: 670 ± 232 ng·h/mL | Cmax [5, 17]: 250 ± 90 ng/mL | Tmax [5, 17]: 1.17 ± 0.41 h | half-life [5, 17]: 1.55 ± 0.61 h | participation of AO in the oxidative metabolism (aldehyde oxidase (AO)): did not participate | cytotoxicity [6]: weak cytotoxicity | participation of FMOs in the oxidative metabolism (FMO1, FMO3, FMO5): did not participate | enhancement of cell‐membrane permeability versus NEN (NCM460 cells): 28 fold | isoform specificity as P450 substrate [7]: highly specific substrates for hCYP3A4 | Pearson's coefficient of co‐localization with ER‐Tracker Red (CYP3A4 [8]): 0.99 | enhancement of cell‐membrane permeability versus NEN (Hep3B cells): 5.6 fold | Cmax [9, 18]: 498 ± 209 ng/mL | Tmax [9, 18]: 0.7 ± 0.27 h | half-life [9, 18]: 6.37 ± 4.65 h | AUC [9, 18]: 4630 ± 2230 ng·h/mL | Cmax [9, 19]: 494 ± 131 ng/mL | Tmax [9, 19]: 0.95 ± 0.67 h | half-life [9, 19]: 8.09 ± 7.52 h | AUC [9, 19]: 5800 ± 5000 ng·h/mL | Cmax [9, 20]: 210 ± 125 ng/mL | Tmax [9, 20]: 1.25 ± 0.61 h | half-life [9, 20]: 2.22 ± 0.94 h | AUC [9, 20]: 642 ± 146 ng·h/mL

SMILES: CC(=O)N1CCN(c2ccc(OCC3COC(Cn4ccnc4)(c4ccc(Cl)cc4Cl)O3)cc2)CC1 (centres unmarked) [KET, ketoconazole, reference compound]
activity at 30 min, 1 µM (CYP3A4 [10]): 1.91% | effect on NFa green signals in mouse liver slices (CYP3A): significantly blocked

SMILES: CC(C)c1nc(CN(C)C(=O)N[C@H](C(=O)N[C@@H](Cc2ccccc2)C[C@H](O)[C@H](Cc2ccccc2)NC(=O)OCc2cncs2)C(C)C)cs1 [RTV, Ritonavir]
increase of AUCinf of midazolam (oral) when co‐administered with RTV (CYP3A4 [11]): five‐fold

IC50 (CYP3A4 [12]): 25.4 nM | IC50 (CYP3A4 [13]): 10.9 nM | activity at 30 min, 1 µM (CYP3A4 [14]): 4.08% | IC50 (hCYP3A4 in HLMs): 13.6 nM | Residual activity (hCYP3A4 in HLMs; inhibitor 1 μM, HLMs, NFa as fluorogenic substrate): completely inhibited | IC50 (CYP3A4 [15]): 270 ± 50 nM
SMILES: O=C(/C=C/c1ccc2cnccc2c1)c1ccc(N2CCCC2)cc1 [D13, (E)-3-(isoquinolin-6-yl)-1-(4-(pyrrolidin-1-yl)phenyl)prop-2-en-1-one]
Ratio of AUC(0‐inf) of NFa (inhibitor group / control group) (CYP3A4 [16]): 7.22 | Ratio of C max of NFa (inhibitor group / control group) (CYP3A4 [16]): 2.37 | Ratio of T max of NFa (inhibitor group / control group) (CYP3A4 [16]): 0.56 | Ratio of t 1/2 of NFa (inhibitor group / control group) (CYP3A4 [16]): 2.87
